Test results from patent US8871751B2, “Compositions and methods relating to nuclear hormone and steroid hormone receptors including inhibitors of estrogen receptor alpha-mediated gene expression and inhibition of breast cancer” (The Board of Trustees of the University of Illinois, priority 2008, dated 2014).
Read-outs that look alike come from different tables or passages of the source. One block for each molecule: values may come before it.

Experiments:
[1] = system: BG-1 ovarian cancer cells; assay: BG-1 cell growth assay (MTS); format: cell-based; conditions: for IC50: 10 pM E2, 5 days, MTS, read-out: IC50 for inhibition of E2-dependent growth of BG-1 cells
Description: ERα positive BG-1 ovarian cancer cells (44) were provided by Prof. K. Korach. ERα negative MDA-MB-231 human breast cancer cell lines were provided by Prof. A. Nardulli. The cells are maintained in phenol red-free MEM medium with 5% calf serum and antibiotics. 4 days before hormone induction, cells are switched to phenol red-free MEM medium containing 5% 2XCD-treated calf serum for BG-1 cells. For BG-1 cell growth assays, 250 cells in 100 μl of phenol-red-free medium were added to wells of a 96-well plate. After 24 h, the indicated concentrations of the test compounds and 10 pM E2 or ethanol vehicle were added to each well. Compounds in DMSO were diluted in medium so that the DMSO concentration was not greater than 0.5%. Cell viability assays were carried out 5-6 days later using Promega CellTiter 96®Aqueous One Solution Cell Proliferation Assay (Promega, Wis.).

[2] = molecular target: T1, human androgen receptor (AR) binding to flARE (Homo sapiens, UniProt P10275); assay: FAMA: inhibition of AR binding to flcARE; conditions: binding to HRE, 5 concentrations 0.5-10 μM, sequential method
T1 construct: AR assays contained 1 nM flcARE and 50 nM full-length wild-type AR; FLAG; made in house
T1 sequence (P10275 1-920): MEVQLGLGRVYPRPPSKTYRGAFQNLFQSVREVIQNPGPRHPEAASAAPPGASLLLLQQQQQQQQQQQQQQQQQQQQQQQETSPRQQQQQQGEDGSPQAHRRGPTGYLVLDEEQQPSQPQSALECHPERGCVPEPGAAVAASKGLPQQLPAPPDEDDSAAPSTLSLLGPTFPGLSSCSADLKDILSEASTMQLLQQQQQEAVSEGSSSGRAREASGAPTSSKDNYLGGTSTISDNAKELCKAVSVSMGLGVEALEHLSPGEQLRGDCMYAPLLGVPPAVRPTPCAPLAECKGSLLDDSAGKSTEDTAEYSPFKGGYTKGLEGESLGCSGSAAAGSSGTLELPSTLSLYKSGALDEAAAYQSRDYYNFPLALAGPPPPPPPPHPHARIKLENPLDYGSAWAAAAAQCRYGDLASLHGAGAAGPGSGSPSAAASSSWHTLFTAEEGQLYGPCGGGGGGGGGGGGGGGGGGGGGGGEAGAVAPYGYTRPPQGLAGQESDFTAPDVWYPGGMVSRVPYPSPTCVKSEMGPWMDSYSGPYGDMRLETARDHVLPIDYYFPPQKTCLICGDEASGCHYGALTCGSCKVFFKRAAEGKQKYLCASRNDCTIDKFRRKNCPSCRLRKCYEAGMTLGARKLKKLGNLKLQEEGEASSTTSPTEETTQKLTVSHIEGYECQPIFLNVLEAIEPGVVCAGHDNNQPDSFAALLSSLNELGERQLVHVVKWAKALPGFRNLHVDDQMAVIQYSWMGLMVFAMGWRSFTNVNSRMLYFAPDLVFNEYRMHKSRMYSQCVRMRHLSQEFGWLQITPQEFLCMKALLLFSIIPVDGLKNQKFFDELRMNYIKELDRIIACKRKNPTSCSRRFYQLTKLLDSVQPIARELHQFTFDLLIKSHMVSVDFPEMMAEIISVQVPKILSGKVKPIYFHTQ
Description: Dose response curves for selected compounds were carried out as described for the HTS screen except that each well contained the indicated concentration of test compound. PR assays were carried out in the same buffer used for ERα assays and contained 1 nM flcPRE and 11 nM PR-B and 100 nM progesterone. The buffer used for AR was similar but also contained 5 μM ZnCl, 5 mM NaF, 0.6 μM CHAPS and 100 nM dihydrotestosterone. AR assays contained 1 nM flcARE and 50 nM full-length wild-type AR.
Specificity was evaluated in dose-response studies by quantitative FAMA using purified full-length human PR binding to a fluorescein-labeled progesterone/glucocorticoid response element (flPRE) and full-length human androgen receptor (AR) binding to a fluorescein-labeled androgen response element (flARE).

[3] = system: 60 cancer cell lines; conditions: independent testing at NCI Developmental Therapeutics Program, cited from earlier work

IC50 [1]: ~5 µM | IC50 [2]: 5.2 µM
Compound: CN1CCC(C#N)c2ccccc21 (stereo not shown) [Compound 1529]
concentration inhibiting growth of BG-1 cells in the absence of E2 ([1]; no E2, 5 days): > 5 µM

IC50 ([1]; Homo sapiens, BG-1, 120 h): 5 µM | IC50 [2]: 7.6 µM
Compound: Cn1c(=O)c2nc(CSCc3ccccc3)[nH]c2n(C)c1=O [Compound 95910, 8-Benzylsulfanylmethyl-1,3-dimethyl-3,7-dihydro-purine-2,6-dione]
potency for inhibiting E2-ERα-dependent cell growth relative to nonspecific toxicity [1]: > 10 fold | effect on E2-independent growth of BG-1 cells ([1]; no E2, 5 days): had no effect | effect on breast and ovarian cell growth ([3]; up to 100 μM): did not inhibit

IC50 [2]: 5 µM
Compound: CN(C)CCCn1c2c3ccccc3ccc2c2oc(=O)c3ccccc3c21 [Compound 638432]

Compound: Cn1c(=S)c2[nH]c(SCCCC(=O)c3ccc(F)cc3)nc2n(C)c1=O [TPSF, Butyrophenone, p-fluoro-4-(1,2,3,6,-tetrahydro-1,3-dimethyl-2-oxo-6-thionopurin-8-ylthio)]
effect on growth of a panel of 60 cancer cell lines ([3]; 10 μM): does not inhibit growth
